Measured values from publication PMC3907505, “The Mechanism of Intralipid®-Mediated Cardioprotection Complex IV Inhibition by the Active Metabolite, Palmitoylcarnitine, Generates Reactive Oxygen Species and Activates Reperfusion Injury Salvage Kinases” (PLoS ONE, 2014).

Target: T1, Complex IV (cytochrome c oxidase) (Rattus norvegicus, UniProt P00406+P05503)
T1 construct: gene Mt-co1; native complex in saponin-permeabilized left ventricular (apex) cardiac fibers; dimer of 13 subunits per monomer; with Cytochrome c oxidase subunit 3; Cytochrome c oxidase subunit 4 isoform 1, mitochondrial; Cytochrome c oxidase subunit 5A, mitochondrial; Cytochrome c oxidase subunit 5B, mitochondrial; Cytochrome c oxidase subunit 6A2, mitochondrial; Cytochrome c oxidase subunit 6B1; Cytochrome c oxidase subunit 6C; Cytochrome c oxidase subunit 7A1, mitochondrial; Cytochrome c oxidase subunit 7B, mitochondrial; Cytochrome c oxidase subunit 7C, mitochondrial; Cytochrome c oxidase subunit 8B, mitochondrial
Experiment: high-resolution respirometry (O2 consumption), permeabilized cardiac fibers
Type: biochemical
Conditions: ascorbate 2 mM/TMPD 0.5 mM as complex IV substrates, pH 7.1, 30°C, 1 g/l BSA in medium
Description: high-resolution respirometry (O2 consumption), permeabilized cardiac fibers on Complex IV (cytochrome c oxidase)

| IC50 (Hillslope −0.86) [µM] | IC50 (Hillslope −1.58) [µM] | Structure (SMILES) |
| --- | --- | --- |
| 72.3 | – | CCCCCCCCCCCCCCCC(=O)O[C@H](CC(=O)[O-])C[N+](C)(C)C [C16∶0c, Palmitoylcarnitine] |
| – | 65.6 | CCCCC/C=C\C/C=C\CCCCCCCC(=O)O[C@H](CC(=O)[O-])C[N+](C)(C)C [C18∶2c, cis,cis-9,12-octadecadienoyl-L-carnitine] |
